Laboratory results from PubChem BioAssay (NCI).
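Five concentrations, 48 hours, 96-well plates. TGI is the concentration that stops growth completely.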

Key:
Experiment in all cases: NCI tumour cell line growth inhibition, 48 h
[1] = system: OVCAR-4 ovarian
[2] = system: M14 melanoma
[3] = system: OVCAR-8 ovarian
[4] = system: NCI/ADR-RES ovarian
[5] = system: SW-620 colon
[6] = system: NCI-H460 lung
[7] = system: A498 renal
[8] = system: OVCAR-5 ovarian
[9] = system: COLO 205 colon
[10] = system: MDA-MB-435
[11] = system: XF 498 CNS
[12] = system: OVCAR-3 ovarian
[13] = system: SK-OV-3 ovarian
[14] = system: DU-145 prostate
[15] = system: SK-MEL-2 melanoma
[16] = system: MCF7 breast
[17] = system: HT29 colon
[18] = system: SK-MEL-28 melanoma
[19] = system: SNB-19 CNS
[20] = system: U251 CNS
[21] = system: LOX IMVI melanoma
[22] = system: HL-60(TB) leukemia
[23] = system: BT-549 breast
[24] = system: HOP-62 NSCLC
[25] = system: KM20L2 colon
[26] = system: M19-MEL melanoma
[27] = system: SR leukemia
[28] = system: HOP-92 NSCLC
[29] = system: K-562 leukemia
[30] = system: UACC-257 melanoma
[31] = system: MOLT-4 leukemia
[32] = system: LXFL 529 NSCLC
[33] = system: HCT-15 colon
[34] = system: TK-10 renal
[35] = system: A549 NSCLC
[36] = system: CCRF-CEM leukemia
[37] = system: SF-295 CNS
[38] = system: NCI-H522 lung
[39] = system: CAKI-1 renal
[40] = system: HCC-2998 colon
[41] = system: SF-268 CNS
[42] = system: SK-MEL-5 melanoma
[43] = system: 786-0 renal
[44] = system: EKVX NSCLC
[45] = system: RPMI-8226 leukemia
[46] = system: SN12C renal
[47] = system: NCI-H226 lung
[48] = system: SNB-78 CNS
[49] = system: MDA-MB-231 breast
[50] = system: IGROV1 ovarian
[51] = system: DMS 114 small cell lung
[52] = system: UACC-62 melanoma
[53] = system: UO-31 renal
[54] = system: HCT-116 colon
[55] = system: RXF 393 renal
[56] = system: DMS 273 small cell lung
[57] = system: KM12 colon
[58] = system: MDA-N
[59] = system: SF-539 CNS
[60] = system: NCI-H23 lung
[61] = system: DLD-1 colon
[62] = system: HOP-18 NSCLC
[63] = system: SNB-75 CNS
[64] = system: HS 578T breast
[65] = system: MALME-3M melanoma
[66] = system: PC-3 prostate
[67] = system: ACHN renal

O=C(O)CN(CC(=O)O)Cc1cc(C#Cc2ccc(C#Cc3ccccc3)cc2)cc(CN(CC(=O)O)CC(=O)O)n1
TGI [1]: 56 µM
TGI [2]: > 76.6 µM
TGI [3]: > 60.6 µM
TGI [4]: 35.6 µM
TGI [5]: > 68 µM
TGI [6]: 66.2 µM
TGI [7]: > 100 µM
TGI [8]: > 81.6 µM
TGI [9]: 36.2 µM
TGI [10]: > 100 µM
TGI [11]: > 100 µM
TGI [12]: > 39.9 µM
TGI [13]: > 100 µM
TGI [14]: > 100 µM
TGI [15]: > 73.7 µM
TGI [16]: 41.8 µM
TGI [17]: > 100 µM
TGI [18]: > 100 µM
TGI [19]: > 77 µM
TGI [20]: 57.6 µM
TGI [21]: 45.8 µM
TGI [22]: > 56.7 µM
TGI [23]: 66.6 µM
TGI [24]: 71 µM
TGI [25]: > 76.3 µM
TGI [26]: 39.9 µM
TGI [27]: > 62.5 µM
TGI [28]: 99.6 µM
TGI [29]: > 67.5 µM
TGI [30]: > 89.1 µM
TGI [31]: 53.7 µM
TGI [32]: > 76.4 µM
TGI [33]: > 59.6 µM
TGI [34]: > 86.2 µM
TGI [35]: > 100 µM
TGI [36]: > 64.9 µM
TGI [37]: > 88.9 µM
TGI [38]: 52 µM
TGI [39]: 61.9 µM
TGI [40]: > 72.4 µM
TGI [41]: > 85.4 µM
TGI [42]: > 71.5 µM
TGI [43]: 47.1 µM
TGI [44]: > 86.8 µM
TGI [45]: 48.8 µM
TGI [46]: > 100 µM
TGI [47]: 58.7 µM
TGI [48]: > 100 µM
TGI [49]: 43 µM
TGI [50]: 78.1 µM
TGI [51]: 47 µM
TGI [52]: 40.4 µM
TGI [53]: > 79.7 µM
TGI [54]: 39.9 µM
TGI [55]: > 62.7 µM
TGI [56]: 23.5 µM
TGI [57]: > 92 µM
TGI [58]: > 100 µM
TGI [59]: 59.3 µM
TGI [60]: > 89.7 µM
TGI [61]: > 68.1 µM
TGI [62]: > 100 µM
TGI [63]: > 100 µM
TGI [64]: > 100 µM
TGI [65]: > 85.5 µM
TGI [66]: 60.9 µM
TGI [67]: 97.5 µM

CCOC(=O)c1nn2c(nc1=O)sc1ccc3ccccc3c12
TGI [1]: > 100 µM
TGI [2]: > 100 µM
TGI [3]: > 100 µM
TGI [5]: > 100 µM
TGI [6]: > 100 µM
TGI [8]: > 100 µM
TGI [9]: > 100 µM
TGI [12]: > 100 µM
TGI [13]: > 100 µM
TGI [15]: > 100 µM
TGI [17]: > 100 µM
TGI [18]: > 100 µM
TGI [19]: > 100 µM
TGI [20]: > 100 µM
TGI [21]: > 100 µM
TGI [22]: > 100 µM
TGI [24]: > 100 µM
TGI [25]: > 100 µM
TGI [26]: > 100 µM
TGI [27]: > 100 µM
TGI [28]: > 100 µM
TGI [29]: > 100 µM
TGI [30]: > 100 µM
TGI [31]: > 100 µM
TGI [32]: > 100 µM
TGI [33]: > 100 µM
TGI [34]: > 100 µM
TGI [35]: > 100 µM
TGI [36]: > 100 µM
TGI [37]: > 100 µM
TGI [39]: > 100 µM
TGI [40]: > 100 µM
TGI [41]: > 100 µM
TGI [42]: > 100 µM
TGI [43]: > 100 µM
TGI [44]: > 100 µM
TGI [45]: > 100 µM
TGI [46]: > 100 µM
TGI [47]: > 100 µM
TGI [48]: > 100 µM
TGI [50]: > 100 µM
TGI [51]: > 100 µM
TGI [52]: > 100 µM
TGI [53]: > 100 µM
TGI [54]: > 100 µM
TGI [55]: > 100 µM
TGI [56]: > 100 µM
TGI [57]: > 100 µM
TGI [59]: > 100 µM
TGI [60]: > 100 µM
TGI [61]: > 100 µM
TGI [62]: > 100 µM
TGI [63]: > 100 µM
TGI [65]: > 100 µM
TGI [67]: > 100 µM
